From patent US20240181022A1, “AMURINS LYSINS, AND LYSIN-ANTIMICROBIAL PEPTIDE (AMP) CONSTRUCTS ACTIVE AGAINST GRAM-NEGATIVE BACTERIA” (priority 2021, published 2024)
≈ marks a conversion by molar mass, not a printed value. Where “and” joins values, the source holds several entries; their conditions need not be identical. Identical values can stand only once. Like-named read-outs stand apart in the source and are kept apart here. Marks after values point to notes of the source that are not given here.

What was measured:
[1] = test system: A. baumannii; assay: Checkerboard synergy assay (FICI) against A. baumannii; assay type: cell-based, Acinetobacter baumannii; conditions: A. baumannii ATCC BAA-747
Protocol: (§1) Any known method to assess MIC may be used.
(§2) Checkerboards are constructed by first preparing columns of e.g., a 96-well polypropylene microtiter plate, wherein each well has the same amount of antibiotic diluted 2-fold along the horizontal axis. […] Bacteria are added to the drug combinations at concentrations of 1×10^5 […] in CAA, for example, with or without human serum or pulmonary surfactant. […] Summation fractional inhibitory concentrations (ΣFICs) are calculated for each drug and the minimum ΣFIC value (ΣFICmin) is used to determine the effect of the Chp peptide/antibiotic combination.
(§3) GN370 was further tested in combination with up to seven additional antibiotics (in addition to meropenem) against a variety of bacterial strains, including P. aeruginosa, A. baumannii, E. coli, E. cloacae, and K. pneumoniae. GN370 and the subject antibiotics were tested in a checkerboard assay format, and FICI values were determined, wherein ≤0.5 indicates synergy, >0.5-≤1 indicates additive; and >1 indicates indifferent.

[2] = test system: E. coli; assay: Checkerboard synergy assay (FICI) against E. coli; assay type: cell-based, Escherichia coli; conditions: E. coli ATCC 25922
Excerpt: In some embodiments, the Chp peptides disclosed herein or active fragments thereof reduce the minimum inhibitory concentration (MIC) of an antibiotic in the presence and/or absence of human serum, pulmonary surfactant, and/or sputum, including human sputum and human sputum from a cystic fibrosis patient. Any known method to assess MIC may be used. In some embodiments, a checkerboard assay is used to determine the effect of a Chp peptide or active fragment thereof on antibiotic concentration. The checkerboard assay is based on a modification of the CLSI method for MIC determination by broth microdilution (See Clinical and Laboratory Standards Institute (CLSI), CLSI. 2015. Methods for Dilution Antimicrobial Susceptibility Tests for Bacteria That Grow Aerobically; Approved Standard-10th Edition. Clinical and Laboratory Standards Institute, Wayne, PA, which is herein incorporated by reference in its entirety and Ceri et al. 1999. J. Clin. Microbiol. 37: 1771-1776, which is also herein incorporated by reference in its entirety).
Checkerboards are constructed by first preparing columns of e.g., a 96-well polypropylene microtiter plate, wherein each well has the same amount of antibiotic diluted 2-fold along the horizontal axis. […] The Chp peptide or active fragment thereof and antibiotic dilutions are then combined, so that each column has a constant amount of antibiotic and doubling dilutions of Chp peptide, while each row has a constant amount of Chp peptide and doubling dilutions of antibiotic. Each well thus has a unique combination of Chp peptide and antibiotic. Bacteria are added to the drug combinations at concentrations of 1×10^5 GFU/ml in CAA, for example, with or without human serum or pulmonary surfactant. […] Summation fractional inhibitory concentrations (ΣFICs) are calculated for each drug and the minimum ΣFIC value (ΣFICmin) is used to determine the effect of the Chp peptide/antibiotic combination.
as §3

[3] = test system: P. aeruginosa; assay: Checkerboard synergy assay (FICI) with antibiotics against P. aeruginosa; assay type: cell-based, Pseudomonas aeruginosa; conditions: for FICI of the antibiotic with GN370: P. aeruginosa ATCC 27853, checkerboard; for Antibiotic MIC (single agent): P. aeruginosa strain AR-769; for Antibiotic FIC / Antibiotic MIC (combo): P. aeruginosa strain AR-769, in combination with GN370; for Antibiotic MIC (combo): in µg/mL
Protocol: as §1, §2
The synergy of GN370 with meropenem was evaluated against 3 different strains of P. aeruginosa and three different strains of B. cenocepacia.
as §3

[4] = test system: P. aeruginosa
[5] = test system: P. aeruginosa AR-769; assay: GN370 in the rabbit pneumonia model; assay type: in vivo, New Zealand White rabbits; conditions: amikacin-alone or GN370-alone
[6] = test system: P. aeruginosa AR-769; assay: Repeat dose study of AM1 in the rabbit pulmonary infection model; assay type: in vivo
[7] = test system: E. cloacae; assay: Checkerboard synergy assay (FICI) against E. cloacae; assay type: cell-based, Enterobacter cloacae; conditions: E. cloacae ATCC 13047
Protocol: as §1, §2, §3

[8] = test system: K. pneumoniae; assay: Checkerboard synergy assay (FICI) against K. pneumoniae; assay type: cell-based, Klebsiella pneumoniae; conditions: K. pneumoniae HM-44
Protocol: as §1, §2, §3

[9] = test system: P. aeruginosa; conditions: 21 day serial passage, literature; cited from earlier work
[10] = test system: P. aeruginosa; assay: Serial passage resistance development study, P. aeruginosa; assay type: cell-based, Pseudomonas aeruginosa; conditions: for MIC: Pseudomonas aeruginosa
[11] = test system: A. baumannii (ATCC BAA-747); assay: microbe, parasite or virus in culture; assay type: cell-based, Acinetobacter baumannii
[12] = test system: E. cloacae (ATCC 13047); assay: microbe, parasite or virus in culture; assay type: cell-based, Enterobacter cloacae
[13] = test system: S. maltophilia; assay: Serial passage resistance development study, S. maltophilia; assay type: cell-based, Stenotrophomonas maltophilia; conditions: for MIC: Stenotrophomonas maltophilia
[14] = test system: E. coli (ATCC 25922); assay: microbe, parasite or virus in culture; assay type: cell-based, Escherichia coli
[15] = test system: K. pneumoniae (1_1_5 HM-44); assay: microbe, parasite or virus in culture; assay type: cell-based, Klebsiella pneumoniae
[16] = test system: A. xylosoxidans; assay: Serial passage resistance development study, A. xylosoxidans; assay type: cell-based, Achromobacter xylosoxidans; conditions: for change in MIC over serial passage: A. xylosoxidans; for MIC: Achromobacter xylosoxidans
[17] = test system: M. avium; assay: MIC against M. avium; assay type: cell-based, Mycobacterium avium; conditions: M. avium (ATCC 700898); CAAT media
[18] = rabbit, amikacin 16 mg/kg i.v. every 8 hours (n = 17)
[19] = 672 h, read-out: MIC after 28-day serial passage
[20] = read-out: MIC at start of serial passage

SMILES: NCC[C@H](O)C(=O)N[C@@H]1C[C@H](N)[C@@H](O[C@H]2O[C@H](CN)[C@@H](O)[C@H](O)[C@H]2O)[C@H](O)[C@H]1O[C@H]1O[C@H](CO)[C@@H](O)[C@H](N)[C@H]1O [amikacin, reference compound]
- FICI of the antibiotic with GN370 [1]: 0.625
- FICI of the antibiotic with GN370 [2]: 0.25
- FICI of the antibiotic with GN370 [3]: 0.375
- Antibiotic MIC (single agent) [3]: 0.5 µg/mL
- Antibiotic FIC [3]: 0.25
- Antibiotic MIC (combo) [3]: 0.125
- MIC ([4]; XDR P. aeruginosa strain AR-769): 8 µg/mL (≈ 13.7 µM)
- decrease of mean bacterial densities in lungs vs vehicle controls [5]: 1.3 log10 CFU/g
- mean bacterial density in lungs compared to the vehicle control group ([6]; agent alone, intravenous, treatment from 6 hours post-infection): moderate to no CFU/g reduction
- Log CFU change v. pre-treatment (at 6 hours) [6, 18]: 0.35* Log CFU
- Mean Bacterial Density in Lung ± SD [6, 18]: 7.84 ± 1.06 Log CFU/lung
- Survival [6, 18]: 85%
- FICI of the antibiotic with GN370 [7]: 0.75
- FICI of the antibiotic with GN370 [8]: 0.375

SMILES: O=C(O)c1cn(C2CC2)c2cc(N3CCNCC3)c(F)cc2c1=O [ciprofloxacin, reference compound]
- Antibiotic MIC (single agent) [3]: 8 µg/mL
- Antibiotic FIC [3]: 0.25
- Antibiotic MIC (combo) [3]: 2 and 1
- Antibiotic FIC ([3]; listed as Ciprofloxacin): 0.125
- increase of MIC over serial passage (D'Lima et al.) [9]: up to 32 fold
- change in MIC over 28-day serial passage ([10]; P. aeruginosa (PA453)): up to 512 fold
- change in MIC over serial passage ([10]; P. aeruginosa strain CFS 1292, Day 28): 256 fold
- MIC [10]: 2 µg/mL (≈ 6.04 µM)
- MIC [10, 19]: 256 µg/mL (≈ 773 µM)
- MIC [10, 20]: 1 µg/mL (≈ 3.02 µM)
- FICI of the antibiotic with GN370 [8]: 0.156

SMILES: C[C@H]1COc2c(N3CCN(C)CC3)c(F)cc3c(=O)c(C(=O)O)cn1c23 [levofloxacin, reference compound]
- change in MIC over 28-day serial passage ([11]; A. baumannii (ATCC BAA-747)): 128 fold
- MIC ([11]; Acinetobacter baumannii, ATCCBAA747): 0.125 µg/mL (≈ 0.346 µM)
- change in MIC over 28-day serial passage ([12]; E. cloacae (ATCC 13047)): 256 fold
- MIC ([12]; Enterobacter cloacae, ATCC13047): 0.0625 µg/mL (≈ 0.173 µM)
- MIC ([4]; […], before serial passage): 1 µg/mL (≈ 2.77 µM)
- change in MIC over serial passage ([13]; S. maltophilia, day 28, triplicate): up to 256 fold
- MIC [13, 19]: 64 µg/mL (≈ 177 µM)
- MIC [13, 20]: 0.25 µg/mL (≈ 0.692 µM)
- MIC [10]: 4 µg/mL (≈ 11.1 µM)
- change in MIC over 28-day serial passage ([14]; E. coli (ATCC 25922)): 128 fold
- MIC ([14]; Escherichia coli, ATCC25922): 0.0312 µg/mL (≈ 0.0865 µM)
- change in MIC over 28-day serial passage ([15]; K. pneumoniae (1_1_5 HM-44)): up to 512 fold
- MIC ([15]; Klebsiella pneumoniae): 0.0312 µg/mL (≈ 0.0865 µM)
- change in MIC over serial passage ([16]; day 28): 128 fold
- change in MIC over serial passage ([16]; day 28, another instance): 64 fold
- MIC ([16]; 672 h, read-out: MIC after 28-day serial passage, A. xylosoxidans): 32 µg/mL (≈ 88.6 µM)
- MIC ([16]; 672 h, read-out: MIC after 28-day serial passage, A. xylosoxidans, another instance): 128 µg/mL (≈ 354 µM)
- MIC ([16]; read-out: MIC at start of serial passage, A. xylosoxidans): 0.25 µg/mL (≈ 0.692 µM)
- MIC ([16]; read-out: MIC at start of serial passage, A. xylosoxidans, another instance): 2 µg/mL (≈ 5.53 µM)

SMILES: NC[C@H]1O[C@H](O[C@H]2[C@H](O)[C@@H](O[C@H]3O[C@H](CO)[C@@H](O)[C@H](N)[C@H]3O)[C@H](N)C[C@@H]2N)[C@H](N)C[C@@H]1O [tobramycin, reference compound]
- MIC [17]: 0.125 Tg/mL
- FICI of the antibiotic with GN370 [1]: 0.5
- FICI of the antibiotic with GN370 [2]: 0.25
- FICI of the antibiotic with GN370 [3]: 0.5
- Antibiotic MIC (single agent) [3]: 0.125 µg/mL
- Antibiotic FIC [3]: 0.125
- Antibiotic MIC (combo) [3]: 0.016 and 0.015
- MIC ([4]; […], before serial passage): 0.002 µg/mL (≈ 0.00428 µM)
- FICI of the antibiotic with GN370 [7]: 0.5
- FICI of the antibiotic with GN370 [8]: 0.375
